The text below walks through data of patent publication US9616051B2, “Drug targets to overcome de novo drug-resistance in multiple myeloma” (H. Lee Moffitt Cancer Center and Research Institute, Inc., priority 2008, dated 2017).

Test [1] deals with cells modeling AML, breast cancer and fibroblastoma. Briefly: Combination of NCI-9138 with other drugs (FIG. 8). As to conditions: 25 μM with doxorubicin 2 μM, bortezomib 10 nM, dexamethasone, lenalidomide, melphalan, topotecan 10 μM. The test is classed as cell-based.
A further test concerns HL-60. Kind of test: CT-Glo cytotoxicity assay, HL-60 cells. To be noted: Homo sapiens, 72-h CT-Glo. The test is classed as cell-based. The procedure:
(§1) The molecules with the highest docking scores were assayed for IC50 values. Cultures were tested for cytotoxicity using the CellTiter-Glo assay (CT-Glo cytotoxicity assay; Promega, Madison, Wis.), a luminescence-based homogeneous method for determining the number of viable cells in culture based on quantitation of the ATP present, which signals the presence of metabolically active cells (Corsino, et al., A novel class of cyclin-dependent kinase inhibitors identified by molecular docking act through a unique mechanism. J Biol Chem 2009; 284: 29945-55; Homsi, et al., Src activation in melanoma and Src inhibitors as therapeutic agents in melanoma. Melanoma Res 2009; 19: 167-75). All cells were assayed at log-phase growth conditions. Luminescence was measured with a Synergy 4 microplate reader (Bio-Tek Instruments, Inc., Winooski, Vt.). IC50 values were determined using a sigmoidal equilibrium model regression using XLfit version 5.2 (ID Business Solutions Ltd., Surrey, UK) (Corsino, et al., A novel class of cyclin-dependent kinase inhibitors identified by molecular docking act through a unique mechanism. J Biol Chem 2009; 284: 29945-55).

The next test has as its system PBMC. Kind of test: CT-Glo cytotoxicity assay, PBMC. To be noted: 72-h CT-Glo, average ± SD. Type of test: cell-based. The procedure: as §1
The next test deals with T1, CRM1-topo IIα complexes (Homo sapiens, UniProt P11388).
T1 construct: CRM1-topo IIα complexes were isolated from cells by immunoprecipitation; endogenous in cells
T1 sequence (P11388 whole entry, one chain of several): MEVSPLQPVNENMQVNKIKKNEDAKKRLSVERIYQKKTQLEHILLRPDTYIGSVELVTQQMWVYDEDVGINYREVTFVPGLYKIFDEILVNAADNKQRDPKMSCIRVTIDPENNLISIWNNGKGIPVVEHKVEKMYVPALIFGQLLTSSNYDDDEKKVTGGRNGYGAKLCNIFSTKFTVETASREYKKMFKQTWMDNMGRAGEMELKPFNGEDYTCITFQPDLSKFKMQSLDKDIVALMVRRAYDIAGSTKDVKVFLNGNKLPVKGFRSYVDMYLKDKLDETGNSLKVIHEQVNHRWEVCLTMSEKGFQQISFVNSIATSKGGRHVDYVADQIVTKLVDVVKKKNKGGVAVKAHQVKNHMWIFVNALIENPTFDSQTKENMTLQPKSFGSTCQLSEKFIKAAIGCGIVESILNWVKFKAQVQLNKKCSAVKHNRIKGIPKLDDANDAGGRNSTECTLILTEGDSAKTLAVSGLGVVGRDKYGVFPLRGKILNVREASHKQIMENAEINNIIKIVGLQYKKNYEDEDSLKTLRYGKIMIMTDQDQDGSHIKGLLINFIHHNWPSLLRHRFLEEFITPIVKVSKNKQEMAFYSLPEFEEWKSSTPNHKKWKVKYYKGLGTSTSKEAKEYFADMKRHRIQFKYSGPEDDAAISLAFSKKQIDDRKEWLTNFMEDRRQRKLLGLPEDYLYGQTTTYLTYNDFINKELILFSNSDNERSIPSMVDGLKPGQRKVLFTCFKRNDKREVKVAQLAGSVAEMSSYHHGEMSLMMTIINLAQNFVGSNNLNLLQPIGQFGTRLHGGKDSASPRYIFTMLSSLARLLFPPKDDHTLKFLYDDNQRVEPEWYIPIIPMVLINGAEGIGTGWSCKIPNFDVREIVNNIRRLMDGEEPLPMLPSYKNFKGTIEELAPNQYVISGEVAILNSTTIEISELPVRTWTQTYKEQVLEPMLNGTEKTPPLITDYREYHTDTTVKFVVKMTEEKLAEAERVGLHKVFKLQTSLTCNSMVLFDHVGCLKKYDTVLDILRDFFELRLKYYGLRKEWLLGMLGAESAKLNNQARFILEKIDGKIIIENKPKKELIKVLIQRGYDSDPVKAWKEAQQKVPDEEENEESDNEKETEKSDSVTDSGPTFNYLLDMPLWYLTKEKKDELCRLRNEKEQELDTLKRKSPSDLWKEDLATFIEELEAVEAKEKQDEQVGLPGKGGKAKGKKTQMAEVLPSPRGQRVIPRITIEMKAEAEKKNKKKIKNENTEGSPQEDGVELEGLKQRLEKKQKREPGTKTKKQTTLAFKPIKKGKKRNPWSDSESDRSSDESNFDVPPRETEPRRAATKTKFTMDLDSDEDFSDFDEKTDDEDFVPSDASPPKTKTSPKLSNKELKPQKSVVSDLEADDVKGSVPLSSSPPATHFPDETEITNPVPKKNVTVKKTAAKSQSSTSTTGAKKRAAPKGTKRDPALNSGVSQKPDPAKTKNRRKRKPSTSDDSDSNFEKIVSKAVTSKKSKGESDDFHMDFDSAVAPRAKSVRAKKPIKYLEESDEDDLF
Kind of test: Co-immunoprecipitation of CRM1 with topo IIα. The test is classed as cell-based. As for the experimental part:
Human myeloma cells were placed at plateau concentrations (4×10^6 cells/ml), and NES inhibitors were added at 25 μM for 20 hours. Cells were collected, washed in PBS, and fractionated by a method adapted from Li et al. (Li Y, Bor Y C, Misawa Y, Xue Y, Rekosh D, Hammarskjold M L. An intron with a constitutive transport element is retained in a Tap messenger RNA. Nature 2006; 443: 234-7). Separated fractions containing nuclei or precipitated cytosol were dissolved in 2% SDS buffer and assayed by SDS-PAGE Western blot analysis. Blots were probed with an anti-topo IIα Kis1 antibody (Millipore Corp.). Lead compounds were also tested to determine if nuclear export inhibition was specific to topo IIα protein. Cells grown at log-phase concentrations were also fractionated. […], CRM1-topo IIα complexes were isolated from cells by immunoprecipitation using a combination of both protein A and protein G magnetic beads according to the manufacturer's protocol (Miltenyi Biotec, Cologne, Germany). Co-immunoprecipitation was performed with 2 μg of anti-CRM1 antibody (Santa Cruz Biotechnology, Inc., Santa Cruz, Calif.). Immunoprecipitation samples were separated by SDS-PAGE, transferred to nitrocellulose membranes, and probed with anti-topo IIα Kis1 antibody (Millipore, Corp., Billerica, Mass.) and anti-mouse horseradish peroxidase secondary antibody.

The subject of the next test is MCF-7. Briefly: CT-Glo cytotoxicity assay, MCF-7 cells. The test is classed as cell-based. To be noted: Homo sapiens, MCF7, 72-h CT-Glo, average ± SD. The procedure: as §1
In the next test the test system is FLOW. Kind of test: CT-Glo cytotoxicity assay, FLOW cells. To be noted: 72-h CT-Glo, average ± SD. The test is classed as cell-based. As for the experimental part: as §1
The test system of a further test is Kg-1a. Kind of test: CT-Glo cytotoxicity assay, Kg-1a cells. The test is classed as cell-based. To be noted: Homo sapiens, 72-h CT-Glo. The procedure: as §1
A further test concerns WI-38. Briefly: CT-Glo cytotoxicity assay, WI-38 cells. Type of test: cell-based. As to conditions: Homo sapiens, 72-h CT-Glo. As for the experimental part:
as §1

The test system of a further test is RPMI-8226 (8226). Briefly: CT-Glo cytotoxicity assay, 8226 cells. Type of test: cell-based, human. As to conditions: Homo sapiens, RPMI-8226.
Excerpt: Compounds identified in Example 1 as the top scoring potential inhibitors for each of the two NES (20 each) were obtained from NCI and structures of these molecules confirmed using NMR and mass spectroscopy analysis, seen in FIGS. 4(A)-(C) and 5(A)-(D). The potential inhibitors were followed up using in vitro model cell cultures. MM cell lines NCI-H929 (H929) and RPMI-8226 (8226) were obtained from and tested for authenticity by the American Type Culture Collection (Manassas, Va.). All cell lines were grown as described previously (Turner, et al., Human topoisomerase IIalpha nuclear export is mediated by two CRM-1-dependent nuclear export signals. J Cell Sci 2004; 117: 3061-71).
as §1

The target in test [2] is T2, topo IIα (Homo sapiens, UniProt P11388).
T2 construct: effect on the intracellular location of topo IIα in treated MM cells; endogenous in cells; host or cells: human multiple myeloma cells NCI-H929
T2 sequence (P11388 whole entry): as the sequence (P11388 whole entry, one chain of several) above
Briefly: Nuclear-cytoplasmic fractionation and Western blot for topo IIα. Type of test: cell-based. As to conditions: RPMI-H929 cells, 100 μM, 24 hours, relative to untreated controls. For orientation: A western blot detects proteins with antibodies after separation by electrophoresis.

Test [3] deals with T2, topo IIα. The test is described as above. As to conditions: high-density RPMI-H929 cells, 25 μM, FIG. 13 legend. Type of test: cell-based. The procedure:
FIGS. 13(A) and (B) are blots from nuclear (nuc)-cytoplasmic (cyto) fractionation of high-density MM cells (n=2). […] Human myeloma RPMI-H929 cells were treated for 24 hours. Cells were then chemically separated into nuclear and cytoplasmic fractions.
Human myeloma cells were placed at plateau concentrations (4×10^6 cells/ml), and NES inhibitors were added at 25 μM for 20 hours. Cells were collected, washed in PBS, and fractionated by a method adapted from Li et al. (Li Y, Bor Y C, Misawa Y, Xue Y, Rekosh D, Hammarskjold M L. An intron with a constitutive transport element is retained in a Tap messenger RNA. Nature 2006; 443: 234-7). Separated fractions containing nuclei or precipitated cytosol were dissolved in 2% SDS buffer and assayed by SDS-PAGE Western blot analysis. Blots were probed with an anti-topo IIα Kis1 antibody (Millipore Corp.). […] Cells grown at log-phase concentrations were also fractionated. After MM cells were treated with NCI-9138 at 25 μM for 20 hours, CRM1-topo IIα complexes were isolated from cells by immunoprecipitation using a combination of both protein A and protein G magnetic beads according to the manufacturer's protocol (Miltenyi Biotec, Cologne, Germany). Co-immunoprecipitation was performed with 2 μg of anti-CRM1 antibody (Santa Cruz Biotechnology, Inc., Santa Cruz, Calif.). Immunoprecipitation samples were separated by SDS-PAGE, transferred to nitrocellulose membranes, and probed with anti-topo IIα Kis1 antibody (Millipore, Corp., Billerica, Mass.) and anti-mouse horseradish peroxidase secondary antibody.

For test [4], the system named is high-density MM cells (H929). Briefly: Cleaved caspase 3 apoptosis assay, sensitization to doxorubicin.

SMILES strings stand for the structures. “Also recorded” adds a separate entry of the source. Read-outs that look alike come from different tables or passages of the source.

As for `O=C1c2ccccc2C(=O)C1C(=O)C(c1ccccc1)c1ccccc1` [NCI-9138, 2-(diphenylacetyl)-1H-indene-1,3(2H)-dione], in test [1], the “Synergism of NCI-9138 in drug combinations” value is “Synergism was seen with doxorubicin; also recorded: synergized exclusively with the topo II inhibitor doxorubicin”. For the same compound, the IC50 with HL-60 came out at 28.3 µM; with PBMC it was 32.5 µM; with MCF-7, 27.2 µM; with FLOW, 31.7 µM; in the test on Kg-1a it was 21.3 µM; in the test on WI-38, 30.1 µM. Further, the IC50 in the test on RPMI-8226 (8226) (8226 cells, 72-h CT-Glo, log-phase (low-density), average ± SD, read-out: IC50) was 12.7 ± 4.5 µM; in the test on RPMI-8226 (8226) (high-density cells, single agent (data not shown), read-out: IC50, viability of high-density cells), 9.4 µM. The “Co-immunoprecipitation of CRM1 with topo IIα” value at CRM1-topo IIα complexes (50 μM for 20 hours (FIG. 12 legend)) is “blocked”. Moreover, the “Binding of topo IIα to CRM1 (co-immunoprecipitation)” value at CRM1-topo IIα complexes (MM cells, 25 μM for 20 hours) is on record as “prevented from binding to CRM1”. Besides, the “Cytoplasmic level / nuclear localization of topo IIα, fractionation Western blot” value on topo IIα [2] was “reduced cytoplasmic levels of topo IIα equivalent to that produced by the CRM-1 inhibitor ratjadone C”. The “Export of topo IIα, nuclear-cytoplasmic fractionation” value on topo IIα [3] is “strongly blocked export of topo IIα”. Besides, the “Sensitization of high-density MM cells to doxorubicin / synergism” value in test [4] (25 μM NES inhibitor, doxorubicin 2 μM) is listed as “synergized with the topo II inhibitor doxorubicin”. Further, the “Fold-Increased sensitization to dox” value in test [4] (dox/drug (dox 2 μM) divided by dox alone) stood at 4.13 ± 1.83 fold.

By IC50 is commonly meant the concentration at which inhibition is half-maximal.
